Assay results: BindingDB's records for doi:10.1016/s0969-2126(98)00113-0 (University of Texas At Dallas, 1998)

What was measured:
[1] = molecular target: Mitogen-activated protein kinase 14 (Homo sapiens, UniProt Q16539); assay: Kinase Inhibition Assay; settings: pH 7.5; 37 °C
[2] = molecular target: Mitogen-activated protein kinase 1 (Rattus norvegicus, UniProt P63086); assay: Kinase Inhibition Assay; settings: pH 7.5; 37 °C
Sequence of Mitogen-activated protein kinase 1 (P63086 whole entry): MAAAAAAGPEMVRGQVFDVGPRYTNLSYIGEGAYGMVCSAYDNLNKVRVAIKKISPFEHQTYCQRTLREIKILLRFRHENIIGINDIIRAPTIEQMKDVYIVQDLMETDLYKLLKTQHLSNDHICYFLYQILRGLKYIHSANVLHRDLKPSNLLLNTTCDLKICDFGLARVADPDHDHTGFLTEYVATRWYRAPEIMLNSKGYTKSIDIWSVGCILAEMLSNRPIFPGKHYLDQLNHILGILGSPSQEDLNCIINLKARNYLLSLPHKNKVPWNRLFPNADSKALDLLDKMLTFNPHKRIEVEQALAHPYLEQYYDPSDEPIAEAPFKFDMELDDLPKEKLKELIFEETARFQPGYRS

Sequence of Mitogen-activated protein kinase 14 (Q16539 whole entry): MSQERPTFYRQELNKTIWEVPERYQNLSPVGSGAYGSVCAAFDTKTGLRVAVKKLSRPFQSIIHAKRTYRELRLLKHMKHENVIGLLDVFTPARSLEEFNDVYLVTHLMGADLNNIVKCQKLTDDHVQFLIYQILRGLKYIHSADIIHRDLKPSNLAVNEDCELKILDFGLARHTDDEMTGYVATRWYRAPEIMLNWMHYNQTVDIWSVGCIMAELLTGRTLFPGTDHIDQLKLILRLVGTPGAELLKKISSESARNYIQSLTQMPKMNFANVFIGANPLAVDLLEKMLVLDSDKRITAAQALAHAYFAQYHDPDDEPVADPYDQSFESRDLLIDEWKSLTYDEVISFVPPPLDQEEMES

IC50 [1]	Compound	IC50 [2]
> 100 µM	Cn1cnc2c(NCc3ccccc3)nc(NCCO)nc21 [2,6,9-Trisubstituted purine deriv. 26]	27 µM
	C[S+]([O-])c1ccc(-c2nc(-c3ccncc3)c(-c3ccc(F)cc3)[nH]2)cc1 (stereo not drawn) [4-{4-(4-fluorophenyl)-2-[4-(methylsulfinyl)phenyl]-1H-imidazol-5-yl}pyridine]	> 1000 µM
